What all share (format): in vivo
The test system of experiment [1] is C57BL/6J mice. Nature of the experiment: EEG/EMG sleep recording after adenosine microinjection into V1 visual cortex. As to the method: Adenosine was injected locally in the V1 cortex of mice to illustrate that the increase in the concentration of adenosine in the visual cortex could improve the sleep amount of mice. The administration cannulas were implanted in bilateral V1 brain regions of C57BL/6J mice, and the mice were placed in the sleep recording cage after about 10 days of surgical recovery. After 3 days of adaptation, the artificial cerebrospinal fluid (ACSF), adenosine of 1.5 nmol/side or adenosine 4.5 nmol/side was microinjected into the V1 visual cortex at the beginning of the dark phase on days 1, 4 and 7 (the administration order was random, and the injection volume was 2 μl/side), respectively; and the EEG/EMG of mice was recorded.

Experiment [2] deals with CD73-KO mice. Kind of experiment: Nocturnal movement activity after 40 Hz light flicker. As to the method:
Thus, we speculated that the 40 Hz light flicker stimulus can regulate sleep rhythm. We firstly exposed the wild-type C57BL/6J mice to light flickers at different frequencies in the last 30 minutes of the daytime phase (19:30-20:00), and then monitored the nocturnal movement activity of the mice, thereby reflecting the sleep-wake states of the mice indirectly. […] We then intraperitoneally injected CD73-KO mice with the […] transporter inhibitor Dipyridamole (Dipyr) at 15 mg/kg. […] Meanwhile, we also intraperitoneally injected CD73-KO mice with the adenosine Al receptor activity antagonist 8-Cyclopentyl-1,3-dipropyl-1H-purine-2,6(3H,7H)-dione (DPCPX) at 6 mg/kg.

Experiment [3] relates to adenosine in the visual cortex (V1). Kind of experiment: UPLC detection of total adenosine concentration in the visual cortex of mice. To be noted: mice visual cortex V1, Dipyridamole 6 mg/kg intraperitoneal, 30 min before illumination.
Experimental: The total concentration of adenosine in the visual cortex of mice was detected by ultra-high performance liquid chromatography (which is reported including 95% extracellular adenosine and 5% intracellular adenosine in literature). Dipyridamole (Dipyr) (a 6 mg/kg adenosine transporter inhibitor) dissolved in 0.5% methylcellulose was intraperitoneally injected 30 minutes before illumination, while the control group was given 0.5% methylcellulose. 30 minutes after the injection, the blank control group and the Dipyridamole group were illuminated for 30 minutes by the light flicker stimulus with the illuminance of 3000 lux, the duty ratio of 50% and the strobe of 40 Hz (referred to as “40 Hz light flicker stimulus” hereinafter). After illumination, the materials were sampled, weighed and rapidly frozen in liquid nitrogen immediately. After the sample processing, the peak value at about 2.0 was detected on machine with reference to the parameters of the standard substance, and the area under the curve at this moment was taken as the concentration of adenosine in the sample. Finally, the concentration of adenosine was obtained after checking the sample quality and calibrating.
Where [4] appears, read: 4.5 nmol/side microinjected into V1, mice.

SMILES strings stand for the structures. Entries after “also recorded” stand apart in the source; their conditions may differ.

The text below walks through data of US20250099779A1, “DEVICE AND METHOD FOR REGULATING RELEASE OF ADENOSINE IN ORGANISM, AND USE” (WENZHOU VENTURA TECHNOLOGY CO., LTD., priority 2022, published 2025).

For the molecule `Nc1ncnc2c1ncn2[C@@H]1O[C@H](CO)[C@@H](O)[C@H]1O` [adenosine], in experiment [1] (1.5 nmol/side microinjected into V1, mice), the “sleep amount compared to the control group (ACSF)” value is reported as “tendency to promote sleep but no significant difference”. In addition, in experiment [1] (setting [4]), the “amount of the non-rapid eye movement sleep in the dark phase” value turned out to be 3 h and the “non-rapid eye movement sleep amount compared to the control group (ACSF)” value is on record as “significantly increases”. In addition, in experiment [1] (adenosine injection into the visual cortex, 1.5 and 4.5 nmol/side), the “total sleep amount of mice” value was “concentration-dependent increase”.
Take `CCCn1c(=O)c2[nH]c(C3CCCC3)nc2n(CCC)c1=O` [DPCPX, 8-Cyclopentyl-1,3-dipropyl-1H-purine-2,6(3H,7H)-dione]: the “movement inhibition effect caused by the 40 Hz light flicker” value in experiment [2] (6 mg/kg intraperitoneal, 6 mg/kg) is “block the movement inhibition effect”.
In the case of `OCCN(CCO)c1nc(N2CCCCC2)c2nc(N(CCO)CCO)nc(N3CCCCC3)c2n1` [Dipyridamole], in experiment [2] (15 mg/kg intraperitoneal, 15 mg/kg), the “movement inhibition effect induced by the 40 Hz light flicker” value is “blocks the movement inhibition effect; also recorded: completely disappeared”. For the same molecule, in experiment [3], the “total concentration of intracellular and extracellular adenosine” value was “effectively inhibit”.
